Experimental findings from the NIST ThermoML archive (doi:10.1016/j.fluid.2015.12.007) are described below.

± gives the expanded uncertainty stated by the source.

The conditions of this series: 101.33 kPa, Liquid; for speed of sound: Sing-around technique in a fixed-path interferometer; for mass density: Vibrating tube method.

On to `CCCCn1cc[n+](C)c1.F[B-](F)(F)F` [1-butyl-3-methylimidazolium tetrafluoroborate], for which the speed of sound runs as follows: (293.15 K) 1576.6 ± 1.2 m/s; (298.15 K) 1564.9 ± 1.2 m/s; (303.15 K) 1553.6 ± 1.2 m/s; (308.15 K) 1542.2 ± 1.2 m/s; (313.15 K) 1530.9 ± 1.2 m/s; (318.15 K) 1520 ± 1.2 m/s. For the same compound, the mass density worked out at 1204.89 ± 0.15 kg/m3 (293.15 K); 1201.33 ± 0.15 kg/m3 (298.15 K); 1197.78 ± 0.15 kg/m3 (303.15 K); 1194.23 ± 0.15 kg/m3 (308.15 K); 1190.7 ± 0.15 kg/m3 (313.15 K); 1187.18 ± 0.15 kg/m3 (318.15 K).
For `CC(O)CO` (stereo not drawn) [1,2-propanediol], the speed of sound runs as follows: (293.15 K) 1516.4 ± 1.3 m/s; (298.15 K) 1505.9 ± 1.3 m/s; (303.15 K) 1493.3 ± 1.3 m/s; (308.15 K) 1480 ± 1.3 m/s; (313.15 K) 1466.3 ± 1.3 m/s; (318.15 K) 1452.7 ± 1.3 m/s. For the same compound, the mass density by setting is: (293.15 K) 1035.73 ± 0.14 kg/m3; (298.15 K) 1032.03 ± 0.13 kg/m3; (303.15 K) 1028.31 ± 0.13 kg/m3; (308.15 K) 1024.55 ± 0.13 kg/m3; (313.15 K) 1020.75 ± 0.13 kg/m3; (318.15 K) 1016.92 ± 0.13 kg/m3.
Consider `CCCC[n+]1ccn(C)c1.O=S(=O)([N-]S(=O)(=O)C(F)(F)F)C(F)(F)F`, for which the speed of sound reads like this: (293.15 K) 1238.6 ± 1.2 m/s; (298.15 K) 1227.4 ± 1.2 m/s; (303.15 K) 1216.3 ± 1.2 m/s; (308.15 K) 1205.4 ± 1.2 m/s; (313.15 K) 1194.7 ± 1.2 m/s; (318.15 K) 1184.1 ± 1.2 m/s. In addition, the mass density (293.15 K) stood at 1440.81 ± 0.23 kg/m3; the mass density (298.15 K) was 1435.99 ± 0.23 kg/m3; the mass density (303.15 K) was determined as 1431.2 ± 0.22 kg/m3; the mass density (308.15 K) is recorded as 1426.42 ± 0.22 kg/m3; the mass density (313.15 K) is reported as 1421.66 ± 0.22 kg/m3; the mass density (318.15 K) stood at 1416.91 ± 0.22 kg/m3.
Regarding `CCCCn1cc[n+](C)c1.COS(=O)(=O)[O-]` [1-butyl-3-methylimidazolium methyl sulfate], the speed of sound by setting is: (293.15 K) 1669.8 ± 3.2 m/s; (298.15 K) 1657.1 ± 3.2 m/s; (303.15 K) 1644.6 ± 3.2 m/s; (308.15 K) 1632.4 ± 3.2 m/s; (313.15 K) 1620.4 ± 3.2 m/s; (318.15 K) 1608.8 ± 3.2 m/s. Further, the mass density runs as follows: (293.15 K) 1211.97 ± 2.8 kg/m3; (298.15 K) 1208.61 ± 2.8 kg/m3; (303.15 K) 1205.25 ± 2.8 kg/m3; (308.15 K) 1201.89 ± 2.8 kg/m3; (313.15 K) 1198.54 ± 2.8 kg/m3; (318.15 K) 1195.2 ± 2.8 kg/m3.

For orientation: speed of sound means how fast a sound wave travels through the sample. By mass density is commonly meant mass per unit of volume.
